We go through 5 compounds from patent US6953814B2, “Natural insect repellant” (Stratacor, Inc., priority 1997, dated 2005).

Molecules are shown by their SMILES. “And” between values parts separate entries of the source, which are not always exact repeats. Equal values may be shown once.

Series [1] deals with Aedes aegypti mosquitoes. The settings on record: 0.31 mg/cm^2; cited from earlier work.
The nature of the next series: Vapor pressure. Particulars: for Vol. (vapor pressure), (est): at 125° C., estimated or extrapolated from literature values. It is filed as physicochemical.
The subject of the next series is Aedes aegypti. The settings on record: 0.5 mg/cm^2 on the skin of man; cited from earlier work.
The test system of series [2] is mosquitoes. The settings on record: Hill et al. 1979; cited from earlier work.
The test system of series [3] is Aedes aegypti mosquitoes. Briefly: Mosquito repellency on skin (olfactometer, human forearm). It is filed as in vivo.
For series [4], the system named is Aedes aegypti mosquitoes. The series is described as above. It is filed as in vivo. The settings on record: for Percent Repellency 2 h: 0.3 mg/cm^2, 2 h after application; for Percent Repellency 0 h: 0.3 mg/cm^2, 0 h after application. The source says: Olfactometer: A Fiensod and Spielman olfactometer, as modified by Bowen and Davis, measured the host-oriented flight response of female mosquitoes to volatile host emanations (Feinsod, F. M., and A. Spielman; An olfactometer for measuring host-seeking behavior of female Aedes aegypti (Diptera: Culicidae); J. Med. Entomol., 15: 282-285, 1979). The olfactometer (approximately 38 cm high) consisted of an upper and lower screened chamber with a closure between the chambers (FIG. 8). A fan placed above the upper chamber drew air through the apparatus at approximately 0.2 m/s. A temperature and humidity controlled chamber (5′ wide by 6′ long by 8′ high) was constructed to house the test subject and the olfactometer.
Rearing of Mosquitoes: A second environmental chamber, maintained at 27° C. and 80% humidity, was dedicated to the rearing of Aedes aegypti mosquitoes. Routine shipments of eggs (American Biological Supply, Gainesville, Fla.) were used to maintain a continuous supply of adult 5-10 day old mosquitoes.
Assays for Attraction of Mosquitoes to Human Subjects: A group of 30 volunteers, consisting of 14 females and 16 males and ranging in age from 24 to 68 years, was selected from the surrounding civilian population. Individuals were tested for their ability to attract Aedes aegypti mosquitoes contained in the olfactometer. Tests were conducted at a temperature of 27° C. and 50% relative humidity. For each trial 15 avid adult female Aedes aegypti mosquitoes (5-10 days post-emergence) were placed in the upper chamber. A small fan was placed on top of the upper chamber to cause an air flow from the lower chamber to the upper chamber. A trial began when the closure between the upper and lower chamber was opened in the absence of a human host. The number of mosquitoes entering the lower chamber within a 3 minute period was recorded. The volunteer then placed his or her arm beneath the lower chamber and the number of mosquitoes flying from the upper chamber to the lower chamber was recorded for the time intervals 0-1, 1-3, 3-5 and 5-7 minutes. This trial was repeated twice during a test session to obtain three replicates. Two additional test sessions, at time intervals of at least 1 week, were conducted to obtain at least 8-9 replicates for each of 24 subjects. Of the remaining 6 subjects, 3 were tested on two separate occasions for a total of 6 replicates per subject; 3 were tested on one occasion for a total of 3 replicates per subject. A total of 254 tests were conducted.
Test compounds were dissolved in acetone or ethanol at a concentration of 300 mg/5 cc. Ethanol solutions of carboxylic acids were prepared just prior to use. Three hundred and fifty microliters of these solutions were applied to a 70 cm^2 rectangular area of the forearm. The resultant dose was 0.3 mg/cm^2. The repellent treated area was allowed to dry for 5 minutes prior to test. The treated skin area was placed under the olfactometer and tests were conducted as described in the preceding paragraph, “Assays for attraction of mosquitoes to human subjects”. Percent repellency was determined from the fraction of mosquitoes entering the lower chamber over a seven minute period.
A commercial formulation of DEET (Skintastic, S. C. Johnson, Racine,) was applied to a 100 cm^2 area on the forearm of 1 volunteer (subject 02) to give a dose of 0.3 mg/cm^2 of DEET. A formulation of C8C9C10 (5% octanoic, 5% nonanoic, 5% decanoic in Dow Corning 345 volatile silicone fluid) was applied to a 100 cm^2 on the subject's other arm to give a dose of 0.3 mg/cm^2 total acids. Application sites were placed under the olfactometer at 1, 2 and 4 hours after treatment. Untreated areas on each arm were placed under the olfactometer at the completion of the treated area tests to check the avidity of the mosquitoes. Tests were done on four separate test days. […]

In series [5] the test system is Aedes aegypti mosquitoes. Briefly: Mosquito repellency on gauze or polyester film (olfactometer). Format: in vivo. The settings on record: cotton gauze or polyester film, 0.3 mg/cm^2, 3 minutes after application. From the text: Olfactometer: A Fiensod and […] olfactometer, as modified by Bowen and Davis, measured the host-oriented flight response of female mosquitoes to volatile host emanations (Feinsod, F. M., and […]; An olfactometer for measuring host-seeking behavior of female Aedes aegypti (Diptera: Culicidae); J. Med. Entomol., 15: 282-285, 1979). The olfactometer (approximately 38 cm high) consisted of an upper and lower screened chamber with a closure between the chambers (FIG. 8). A fan placed above the upper chamber drew air through the apparatus at approximately 0.2 m/s. A temperature and humidity controlled chamber (5' wide by 6' long by 8' high) was constructed to house the test subject and the olfactometer. Rearing of Mosquitoes: A second environmental chamber, maintained at 27° C. and 80% humidity, was dedicated to the rearing of Aedes aegypti mosquitoes. […] Assays for Attraction of Mosquitoes to Human Subjects: A group of 30 volunteers, consisting of 14 females and 16 males and ranging in age from 24 to 68 years, was selected from the surrounding civilian population. Individuals were tested for their ability to attract Aedes aegypti mosquitoes contained in the olfactometer. Tests were conducted at a temperature of 27° C. and 50% relative humidity. […] A small fan was placed on top of the upper chamber to cause an air flow from the lower chamber to the upper chamber. A trial began when the closure between the upper and lower chamber was opened in the absence of a human host. […] This trial was repeated twice during a test session to obtain three replicates. Two additional test sessions, at time intervals of at least 1 week, were conducted to obtain at least 8-9 replicates for each of 24 subjects. Of the remaining 6 subjects, 3 were tested on two separate occasions for a total of 6 replicates per subject; 3 were tested on one occasion for a total of 3 replicates per subject. A total of 254 tests were conducted. Test compounds were dissolved in acetone or ethanol at a concentration of 150 mg/5 cc. Ethanol solutions of carboxylic acids were prepared just prior to use. Five hundred microliters of these solutions were applied to a 50 cm^2 circular area of a single layer of cotton gauze (Curity Curad gauze, Futuro Inc., Milford, Ohio) or nonwoven polyester film ([…], Inc.). The resultant dose was 0.3 mg/cm^2. […] The cup was attached to the bottom of the olfactometer (FIG. 8) so that air flowed through the stainless steel screen of the cup, through the treated gauze or film, and through the olfactometer. A volunteer's forearm was placed under the cup, so that air drawn into the cup and olfactometer was laden with human skin emanations. Tests were conducted as described in the preceding paragraph, “Assays for attraction of mosquitoes to human subjects”. Percent repellency was determined from the fraction of mosquitoes entering the lower chamber over a seven minute period. This assay is an approximate measure of the intrinsic repellency of a compound. Good repellency in this test is a necessary, but not sufficient, condition for good repellency on skin. Mosquito repellents must produce a vapor over the skin surface to confuse the host seeking behavior of the insect. However, volatilization must not be so great that the repellent action rapidly dissipates. Since volatilization from the skin will be different from an inanimate surface, skin tests are necessary to confirm that a compound will be a practical repellent.

The nature of the next series: Thermal stability. Format: physicochemical.
A further series can be described thus: Ionization at skin pH. Format: physicochemical. Particulars: pH = pKa of the acids. From the text: Naturally occurring fatty acids contain both polar (carboxylic acid group) and non-polar (alkyl chain) regions in their structure and the lower molecular weight homologs are sufficiently volatile to evaporate from the skin surface. Individually, these compounds have repellent activity. A number of these compounds were applied to non-absorptive gauze mounted between the human forearm and the olfactometer containing mosquitoes. These tests were done immediately after application to minimize losses due to evaporation (described fully in “Example 2” below). Because skin absorption and evaporative loss is minimized, this test can be regarded as a measure of the potency of the compounds. Homologs containing 8 to 11 carbon atoms had similar potency (percent repellency), which was greater than that of DEET (FIG. 3). Six carbon homologs and twelve carbon homologs had potency equal to or less than DEET. […] Percent repellency dropped dramatically with increasing numbers of carbon atoms in the molecule (FIG. 4). […] The nonanoic acid was preferably saturated. 4MOCTAN had the best overall performance at the zero and two hour time points. It should be noted for FIGS. 4 and 5 that the carboxylic acids exist on the skin at a pH which ionizes 50% of the molecules (pH=pKa of the acids). Since the ionized species are not volatile, the actual available dose is approximately 50% of that for DEET.

Series [6] concerns mosquitoes. The settings on record: under laboratory conditions; cited from earlier work.
In series [7] the test system is yellow fever mosquito (Aedes aegypti (L.)). Particulars: human skin, approximately 2 mg/cm^2, time until two bites; DEET from Gilbert 1957; cited from earlier work.
The conditions of series [8]: at 125° C., literature values; cited from earlier work.
Setting [9] is: on skin, listed as N,N-Diethyl-m-toluamide.

With `CCCCCCCC=CC(=O)O` [2-Decenoic acid], the “Protection time against Aedes aegypti mosquitoes” value in the series with Aedes aegypti mosquitoes [1] was below 15 min. In addition, the “Vol. (vapor pressure), (est)” value in “Vapor pressure” was 2.4 (est) mm Hg. In the series on Aedes aegypti, the “Protection Time” value was 6 ± 4 h.
`CCCC(O)C(CC)CO` (stereo not shown) [2-Ethyl-1,3-hexanediol, reference compound]: the “protects against mosquitoes for” value with mosquitoes [2] is 3 to 4 h. For the same compound, in the series “Vapor pressure” (from vapor pressures of Table 7), the “volatility relative to DEET” value is listed as “twice as volatile as DEET”.
Consider `CCCCC(C)CCC(=O)O` (stereo not shown) [4-Methyloctanoic acid], for which the “repellency over a 4 hour period compared to DEET” value with Aedes aegypti mosquitoes [3] (0.6 mg/cm^2 versus 0.3 mg/cm^2 DEET, FIG. 6) was “nearly equal to that of DEET”. Besides, the “Percent Repellency 2 h” value in the series on Aedes aegypti mosquitoes [3] (on skin, 0.6 mg/cm^2, 2 h after application) is listed as 79 ± 21 (2) %; in the series on Aedes aegypti mosquitoes [4] (on skin), 66 (1) %. For the same compound, in the series with Aedes aegypti mosquitoes [3] (on skin, 0.6 mg/cm^2, 4 h after application), the “Percent Repellency 4 h” value was found to be 67 ± 9%. Also, the “repellency immediately after application to skin, compared to DEET” value in the series on Aedes aegypti mosquitoes [4] (FIG. 4) was “comparable to DEET”. Further, in the series on Aedes aegypti mosquitoes [4] (FIG. 5), the “repellency two hours after skin application, ranking” value is “highest repellency”. Besides, the “Vol. (vapor pressure), (est)” value in “Vapor pressure” was 6 (est) mm Hg. In addition, in the series with Aedes aegypti mosquitoes [5] (Aedes aegypti, 0.05 h, read-out: Percent Repellency), the pest or weed control at 0.3 mg/cm2 came to 88 ± 18%. Moreover, the Thermal stability result in the series “Thermal stability” was “thermally unstable”. For the same compound, the “fraction ionized at skin pH” value in “Ionization at skin pH” is on record as “about 50%”.
Turning to `CCN(CC)C(=O)c1cccc(C)c1` [DEET, N,N,-diethyl-m-toluamide, reference compound], the hours of protection in the series on mosquitoes [6] is 5 to 7 h. Moreover, the “protects against mosquitoes for” value in the series on mosquitoes [2] was 5 to 6 h. Also, the “Protection time against Aedes aegypti mosquitoes” value with Aedes aegypti mosquitoes [1] was 330 min. In addition, the “Protection time against yellow fever mosquitoes” value in [7] was 363 min^b. The “Percent Repellency 0 h” value in the series with Aedes aegypti mosquitoes [4] (on skin) was 95% and 95 ± 6%; in the series with Aedes aegypti mosquitoes [4] (setting [9]) it was 95 ± 6 (3) %. Further, the “Percent Repellency 2 h” value in the series with Aedes aegypti mosquitoes [4] (on skin) was 89% and 89 ± 10%; in the series with Aedes aegypti mosquitoes [4] (setting [9]), 89 ± 10 (3) %. The “Percent Repellency 4 h” value in the series with Aedes aegypti mosquitoes [4] (on skin, 0.3 mg/cm^2, 4 h after application) is on record as 83 ± 9%. Also, the “Percent Repellency” value stood at 74% in the series with Aedes aegypti mosquitoes [5] and 74 ± 12% in the series on Aedes aegypti mosquitoes [5] (listed as N,N-Diethyl-m-toluamide). The “Protection Time” value with Aedes aegypti was 8 ± 2 h.
Take `CCCCCC(=O)O` [Hexanoic acid]: the “Vol. (vapor pressure)” value in series [8] is given as 39.6 mm Hg.
